Like-named read-outs stand apart in the source and are kept apart here.
What was measured:
Adenosine A2A Receptor = target: T1, Adenosine A2A Receptor (Homo sapiens, UniProt P29274); experiment: A2A Tag-lite HTRF assay; assay type: binding; conditions: Tag-lite Adenosine A2A labeled cells; fluorescent antagonist ligand 12.5 nM
T1 construct: Tag-lite label (own knowledge: SNAP-tag fusion labeled with terbium); purchased CisBio C1TT1A2A
Method: Test compounds were first serially diluted in DMSO and 100 nL added to the plate wells before the addition of other reaction components. The final concentration of DMSO was 1%. Tag-lite® Adenosine A2A labeled cells (CisBio C1TT1A2A) were diluted 1:5 into Tag-lite buffer (CisBio LABMED) and spun 1200 g for 5 mins.

[1] = target: T2, human adenosine A2B receptor (Homo sapiens, UniProt P29275); experiment: Adenosine A2B Receptor cyclic AMP GS Assay; assay type: cell-based
T2 construct: host or cells: HEK-293 (stably transfected)
T2 sequence (P29275 1-332): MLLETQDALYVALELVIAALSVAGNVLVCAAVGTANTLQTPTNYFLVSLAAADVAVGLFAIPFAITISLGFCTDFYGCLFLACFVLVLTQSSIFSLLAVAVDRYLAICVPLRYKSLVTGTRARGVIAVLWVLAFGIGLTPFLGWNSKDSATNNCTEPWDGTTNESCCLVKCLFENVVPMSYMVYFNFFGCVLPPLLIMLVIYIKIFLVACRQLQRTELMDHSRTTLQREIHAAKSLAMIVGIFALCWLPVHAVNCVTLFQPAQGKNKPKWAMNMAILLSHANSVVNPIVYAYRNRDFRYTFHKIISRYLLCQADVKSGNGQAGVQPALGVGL
Method: Stably transfected HEK-293 cells expressing the human adenosine A2B receptor (Perkin Elmer) were maintained in MEM culture medium with 10% FBS and 100 μg/mL Geneticin (Life Technologies). 18 to 24 hours prior to assay, geneticin was removed from culture. The cisbio cAMP-GS Dynamic kit utilizing the FRET (Fluorescence Resonance Energy Transfer) technology was used to measure cAMP accumulation in the cells. Compounds of the present disclosure at an appropriate concentration were mixed with 10000 cells/well in white 96 well half area plates (Perkin Elmer) for 30 min at RT gently shaking. […] Detection reagents, d2-labeled cAMP (acceptor) and anti-cAMP cryptate (donor) were added to each well for 60 min at RT gently shaking.

[2] = system: human breast adenocarcinoma tumor, MDA-MB-231; experiment: Anti-tumor efficacy in humanized murine host carrying MDA-MB-231 tumor; assay type: in vivo, human CD34+ reconstituted mice; conditions: vs Vehicle + IgG isotype, ANTIBODY Y 10 mg/kg i.p. every 5 days, retifanlimab 1 mg/mL i.p. every 5 days, Compound 9 10 mg/kg p.o. b.i.d., dosing day 7-35
Method: On day 7, and every 3 to 4 days subsequently, tumors were measured by Vernier caliper and tumor volume was calculated by the formula, Volume=[L (long dimension)×W^2 (short dimension)]/2. Based on these measurements, mice were randomized into 8 treatment groups of 10 mice each with an average starting tumor volume of 180 mm^3. The studied agents were formulated and administered as follows: ANTIBODY Y was diluted to a final concentration of 1 mg/mL in phosphate-buffered saline and administered by intraperitoneal (i.p.) injection at 10 mL/kg to mice for a dose of 10 mg/kg, every 5 days. Retifanlimab (Macrogenics) was diluted to 1 mg/mL and dosed i.p., every 5 days. For combination treatments, the two antibodies were co-formulated to a concentration of 1 mg/mL, each. The oral vehicle was 5% N,N-dimethylacetamide in 0.5% methyl-cellulose in 50 mM citrate buffer, pH 3.0 (all reagents obtained from Sigma) and was administered by oral gavage (p.o.) twice daily (b.i.d.).
Dosing began at day 7, and ran for 28 days, through day 35. […]
Tumor Growth Inhibition (TGI), defined as (1-treatment group volume)/control group volume)×100 was analyzed for the whole study on day 47, the last day prior to some animals leaving the study at their endpoint. […]

[3] = HEK-293 cells expressing human A2B, agonist NECA 12 nM, cAMP accumulation, read-out: A2B—cAMP_EC50

T1 sequence (P29274 whole entry, the tested form may be a part): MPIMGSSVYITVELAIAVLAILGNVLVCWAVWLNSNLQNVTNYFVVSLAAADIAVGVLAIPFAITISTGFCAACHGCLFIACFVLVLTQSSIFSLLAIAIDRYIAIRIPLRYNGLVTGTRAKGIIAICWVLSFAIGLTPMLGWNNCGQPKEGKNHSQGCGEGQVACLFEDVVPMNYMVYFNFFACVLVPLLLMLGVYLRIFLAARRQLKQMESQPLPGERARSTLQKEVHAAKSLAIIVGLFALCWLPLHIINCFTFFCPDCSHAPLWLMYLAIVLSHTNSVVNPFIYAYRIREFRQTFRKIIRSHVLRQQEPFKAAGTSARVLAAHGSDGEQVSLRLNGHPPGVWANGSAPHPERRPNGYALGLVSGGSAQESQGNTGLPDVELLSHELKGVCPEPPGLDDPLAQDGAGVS

Compound | Ki (Adenosine A2A Receptor) [µM] | other results
Cc1ncoc1-c1c(-c2cccc(C#N)c2)nc(N)c2nc(C(N)c3c(F)cccc3F)nn12 (single isomer, unassigned) [Compound 11, 3-(8-amino-2-(amino(2,6-difluorophenyl)methyl)-5-(4-methyloxazol-5-yl)-[1,2,4]triazolo[1,5-a]pyrazin-6-yl)benzonitrile] | < 0.01 | EC50 [1]: < 0.01 µM
Cn1nc(-c2c(-c3cccc(C#N)c3)nc(N)c3nc(Cc4ccccn4)nn23)ccc1=O [Compound 9, 3-(8-Amino-5-(1-methyl-6-oxo-1,6-dihydropyridazin-3-yl)-2-(pyridin-2-ylmethyl)-[1,2,4]triazolo[1,5-a]pyrazin-6-yl)benzonitrile] |  | Percent TGI (Day 47 Tumor Growth Inhibition) [2]: 18.42%
Cn1nccc1-c1c(-c2cccc(C#N)c2F)nc(N)c2nn(Cc3ccccn3)nc12 [Compound 16, 3-(4-amino-7-(1-methyl-1H-pyrazol-5-yl)-2-(pyridin-2-ylmethyl)-2H-[1,2,3]triazolo[4,5-c]pyridin-6-yl)-2-fluorobenzonitrile] | < 0.01 | 
CCCCCn1c2cc(-c3cnn(Cc4cncc(Cl)c4)c3)[nH]c2c(=O)n2c(C)nnc12 [Compound 17, 7-(1-((5-Chloropyridin-3-yl)methyl)-1H-pyrazol-4-yl)-3-methyl-9-pentyl-6,9-dihydro-5H-pyrrolo[3,2-d][1,2,4]triazolo[4,3-a]pyrimidin-5-one] | < 0.01 | 
CCCCCn1c2cc(-c3cnn(Cc4cncc(C)c4)c3)[nH]c2c(=O)n2c(C)nnc12 [Compound 18, 3-Methyl-7-(1-((5-methylpyridin-3-yl)methyl)-1H-pyrazol-4-yl)-9-pentyl-6,9-dihydro-5H-pyrrolo[3,2-d][1,2,4]triazolo[4,3-a]pyrimidin-5-one] | < 0.01 | 
CCCCCn1c2cc(-c3cnn(Cc4cnc5ccsc5c4)c3)[nH]c2c(=O)n2c(C)nnc12 [Compound 19, 3-Methyl-9-pentyl-7-(1-(thieno[3,2-b]pyridin-6-ylmethyl)-1H-pyrazol-4-yl)-6,9-dihydro-5H-pyrrolo[3,2-d][1,2,4]triazolo[4,3-a]pyrimidin-5-one] | < 0.01 | 
CCCCCn1c2cc(-c3cnn(Cc4ccc5c(c4)CCN(C(=O)CN(C)C)C5)c3)[nH]c2c(=O)n2c(C)nnc12 [Compound 20, 7-(1-((2-(2-(Dimethylamino)acetyl)-1,2,3,4-tetrahydroisoquinolin-6-yl)methyl)-1H-pyrazol-4-yl)-3-methyl-9-pentyl-6,9-dihydro-5H-pyrrolo[3,2-d][1,2,4]triazolo[4,3-a]pyrimidin-5-one] | < 0.01 | 
retifanlimab: humanized IgG4 monoclonal antibody that binds to human PD-1; heavy chain SEQ ID NO:2, light chain SEQ ID NO:3 |  | Percent TGI (Day 47 Tumor Growth Inhibition) [2]: 9.57%

The next lines start with results.

Ki (Adenosine A2A Receptor) [µM] | Compound | other results
< 0.01 | N#Cc1cccc(-c2nc(N)n3nc(C(O)c4c(F)cccc4F)nc3c2-c2ccncn2)c1 (single isomer, unassigned) [Compound 2, 3-(5-Amino-2-((2,6-difluorophenyl)(hydroxy)methyl)-8-(pyrimidin-4-yl)-[1,2,4]triazolo[1,5-c]pyrimidin-7-yl)benzonitrile] | 
< 0.01 | CN1CCC(NCc2cccc(F)c2C(O)c2nc3cc(-c4cccc(C#N)c4F)nc(N)n3n2)C1=O (single isomer, unassigned) [Compound 8, 3-(5-Amino-2-((2-fluoro-6-(((1-methyl-2-oxopyrrolidin-3-yl)amino)methyl)phenyl)(hydroxy)methyl)-[1,2,4]triazolo[1,5-c]pyrimidin-7-yl)-2-fluorobenzonitrile] | 
< 0.01 | N#Cc1cccc(-c2nc(N)n3nc(Cc4ccccn4)nc3c2-c2ccncn2)c1 [Compound 1, 3-(5-Amino-2-(pyridin-2-ylmethyl)-8-(pyrimidin-4-yl)-[1,2,4]triazolo[1,5-c]pyrimidin-7-yl)benzonitrile] | 
< 0.01 | Cc1cccnc1COc1nc2c(-c3ccncn3)c(-c3cccc(C#N)c3)nc(N)n2n1 [Compound 4, 3-(5-Amino-2-((3-methylpyridin-2-yl)methoxy)-8-(pyrimidin-4-yl)-[1,2,4]triazolo[1,5-c]pyrimidin-7-yl)benzonitrile] | 
< 0.01 | N#Cc1cccc(-c2cc3nc(C(O)c4ccccc4)nn3c(N)n2)c1 (stereo not shown) [Compound 5, 3-(5-Amino-2-(hydroxy(phenyl)methyl)-[1,2,4]triazolo[1,5-c]pyrimidin-7-yl)benzonitrile] | EC50 [1, 3]: < 0.01 µM
< 0.01 | N#Cc1cccc(-c2cc3nc(C(O)c4c(F)cccc4F)nn3c(N)n2)c1F (stereo not shown) [Compound 6, 3-(5-Amino-2-((2,6-difluorophenyl)(hydroxy)methyl)-[1,2,4]triazolo[1,5-c]pyrimidin-7-yl)-2-fluorobenzonitrile] | EC50 [1, 3]: < 0.01 µM
< 0.01 | N#Cc1cccc(-c2nc(N)n3nc(C(O)c4c(F)cccc4F)nc3c2C#N)c1F (stereo not shown) [Compound 7, 5-Amino-7-(3-cyano-2-fluorophenyl)-2-((2,6-difluorophenyl)(hydroxy)methyl)-[1,2,4]triazolo[1,5-c]pyrimidine-8-carbonitrile] | EC50 [1, 3]: < 0.01 µM
< 0.01 | N#Cc1cccc(-c2nc(N)c3nn(Cc4ccccn4)nc3c2-c2ccncn2)c1 [Compound 13, 3-(4-amino-2-(pyridin-2-ylmethyl)-7-(pyrimidin-4-yl)-2H-[1,2,3]triazolo[4,5-c]pyridin-6-yl)benzonitrile] | 
< 0.01 | N#Cc1cccc(-c2nc(N)c3nn(Cc4ncccc4F)nc3c2-c2ccncn2)c1 [Compound 14, 3-(4-amino-2-((3-fluoropyridin-2-yl)methyl)-7-(pyrimidin-4-yl)-2H-[1,2,3]triazolo[4,5-c]pyridin-6-yl)benzonitrile] | 
< 0.01 | N#Cc1cccc(-c2nc(N)c3nn(Cc4ncccc4F)nc3c2-c2ccncc2)c1 [Compound 15, 3-(4-amino-2-((3-fluoropyridin-2-yl)methyl)-7-(pyridin-4-yl)-2H-[1,2,3]triazolo[4,5-c]pyridin-6-yl)benzonitrile] | 

Source: US20220233529A1, “COMBINATION THERAPY COMPRISING A2A/A2B INHIBITORS, PD-1/PD-L1 INHIBITORS, AND ANTI-CD73 ANTIBODIES” (Incyte Corporation, priority 2020, published 2022)
